Results published in paper PMC7079008, “Compactness of Protein Folds Alters Disulfide‐Bond Reducibility by Three Orders of Magnitude: A Comprehensive Kinetic Case Study on the Reduction of Differently Sized Tryptophan Cage Model Proteins” (Chembiochem, 2019).
Where a SMILES comes first, the peptide text is derived from it. Bridges are numbered along the chain shown (N, C = ends).

Experiments:
[1] = Degree of fold by FUV-ECD (CCA+ ensemble deconvolution); format: physicochemical; conditions: for Degree of the fold by FUV-ECD: T=15 °C, c(protein)=20–30 μM, pH≈7, joint CCA+ deconvolution of 204 T-dependent FUV-ECD spectra; for difference in folded fraction between SS variant and parent: at 4 °C, FUV-ECD ensemble deconvolution
Excerpt: Circular dichroism (CD) spectroscopy is increasingly recognized as very sensitive indicator of protein conformation,58, 59 relying on a plethora of electronic transitions. The FUV‐ECD spectra of Trp‐cage proteins (e.g., Exenatide, E19, E19_SS) are typically the weighted sums of the C‐ (folded and highly helical) and U‐type (unfolded) base curves (Figure 2 A), as assigned and verified by means of NMR spectroscopy.60, 61 As the temperature increases, the shape of the FUV‐ECD spectra changes: those of the parent proteins—E2, E5, E11, and E19—acquire more and more U‐type characteristics, as they unfold gradually. The temperature‐dependent FUV‐ECD spectra for all four SS bond enforced model peptides were recorded between 5 and 85 °C (in steps of 5 °C, resulting in 17 spectra for each protein; Figure S1 in the Supporting Information). Aside from E2_SS, the SS‐bond‐containing mutants have similar FUV‐ECD spectra to that of their parent proteins at low temperatures. On the other hand, because the SS bond makes the 3D folds of SS variants more rigid, they preserve their C‐type characteristics better and delay unfolding, even at higher temperatures. Once the SS bond is reduced (see below for details), the spectral properties of the SH variants revert to those of the parent proteins. Their 3D‐scaffold compactness decreases as the temperature increases; this is less apparent in the case of E2 and E2_2SH because they both already present an ensemble of dynamic backbone structures at 5 °C.
Ensemble deconvolution62, 63 of the 204 (12×17) ECD spectra, f(λ, T), made the quantitative analysis of the relative abundance of secondary structural elements belonging to each peptide in each state possible because the pure ECD curves were successfully assigned.60, 64, 65, 66 The results in Figure 2 B indicate that 1) the SS bond stabilizes the less folded protein scaffolds more effectively, for example, whereas the difference at 4 °C between the E2 and E2_SS folded fraction is 48 %, the same difference between E5 and E5_SS is 14 %; in the case of E11 and E11_SS, it is only 28 %, and for E19 and E19_SS it is 7 % (Figure 2 D). 2) The ratio of the folded, helical components increases upon going from E2 to E5 and E11; however, the compact α‐helical content of E19_SS, E19_2SH, and E19 is lower than those of E11_SS, E11_2SH, and E11 because the unfolded eight‐residue‐long N‐terminal part elevates the overall backbone dynamics, which destabilizes the compact 3D fold. 3) All four reduced proteins (E2_2SH, E5_2SH, E11_2SH, E19_2SH) have a higher helix content (≈7–15 %) than that of the parent proteins over the entire temperature range. 4) The 3D folds stabilized by SS bonds are less sensitive to temperature (Figure 2 C, D).
ECD: FUV‐ECD spectra were recorded on a Jasco J810 spectrophotometer by using a 1.0 mm path length cuvette with protein concentrations of 20–30 μM. Data accumulation was performed over a range of 185–260 nm, with 0.2 nm step resolution at a scan rate of 50 nm min^−1 with a 1 nm bandwidth. The spectral accumulations were resolved between 5 and 85 °C in steps of 5 °C. The temperature was controlled by using a Peltier‐type heating system. Each spectrum baseline was processed by subtracting the solvent spectrum from that of the protein and the raw ellipticity data were converted into mean residue molar ellipticity units, [Θ]MR.

[2] = SS bond reduction by DTT monitored by 1H NMR; format: physicochemical; conditions: 1.7 mM protein, twofold excess of DTT, 15 °C; for DTT: Conversion rate / DTT: Elapsed time to steady state: pH 7; for DTT: t1/2 of reduction: pH 7, calculated from k1 (Eq. 12); for DTT: k1: pH 7, parameter estimation (phase 1 data)
Procedure: An appropriate reduction protocol was required to unambiguously determine the 3D structures of the above‐introduced pure reduced states. Thus, in agreement with the above discussion, only mild conditions (15 °C and twofold molar excess of […]) were used for the reduction of the four different miniproteins. Determining the structural properties and reduction rates under the same conditions allowed us to elucidate the basis of the observed differences in the reduction rates. […] It appears as if “cutting back” on the α‐helical segment strongly affects the SS bond reducibility, even though the SS bonds of all four models are near the surfaces (Figure 7 A). To our great surprise, we recorded three orders of magnitude differences between the reduction rate constants (Table 3). Whereas the reduction of E2_SS is still extremely fast, tE2_SS/1/2 <≈1 min, that of E5_SS occurs on the timescale of minutes: tE5_SS/1/2 ≈14 min. […] The conversion rate was close to complete for the shorter peptide of E2_SS, whereas the reduction of E19_SS was only 88 % complete. The kinetic parameters of all four model proteins were determined by using a twofold molar excess of DTT, at pH 7, and T=15 °C.
Monitoring reduction kinetics: Peptide samples were prepared between 0.8 and 1.8 mM in 50 mM NaH2PO4–Na2HPO4 buffer (600 μL, pH 6.95), with 10 % D2O. A 0.1 M solution of NaOH was used to set the pH to 7. Sodium trimethylsilylpropanesulfonate (DSS) was added as the internal proton reference standard, set to δ=0.0 ppm under all conditions. ^1H,^1H 2D homonuclear spectra were recorded for the oxidized peptide; thereafter, upon the addition of a different excess of 0.5 M TCEP or DTT, reduction was observed by recording a series of 1D ^1H spectra (ns=64 or 128 scans). Finally, at the end point, ^1H,^1H homonuclear 2D spectra were recorded on the reduced peptide. Data sets were processed by using TopSpin 3.2 software. The conversion rate was determined by using the relative integral of the Trp Hϵ1 signal in the oxidized (IntOX) and reduced (IntRED) form. Each integral was normalized to the integral of DSS. The concentrations were determined by the ratio of the oxidized and reduced integrals and the initial protein concentration.
Parameter estimation: Kinetic parameter estimation was based on the integral of selected NMR signals considered to be proportional to the concentration of the relevant species. The mechanism taken into account is that given by Equations (8), (9), (10), (11):(8) SS+Red→k12SH+Ox (9) 2SH+O2→k2SS (10) [drawing 1] (11) [drawing 2]
in which SS is the […] model protein with an intramolecular S−S bond; 2 SH is the same protein with the S−S bond reduced to two −SH groups; and the symbol Ø means a different phase from that of the reaction mixture, that is, the polymer aggregate as a sink in the first case and the gas phase as a source in the second case.
For parameter estimation, the COPASI 4.16 (Build 104) Biochemical System Simulator software (http://copasi.org/) was used, with the parameter estimation option of the Levenberg–Marquardt method.
To determine the half‐life and initial concentration of the SS species, a kinetic analysis of the temporal evolution of the reactions was performed. […] From the kinetic analysis, the initial concentration of oxygen ([O2]0) could also be estimated, except for one case in which the uncertainty of this parameter was very large, due to the lack of sufficient experimental data.
Because reduction follows second‐order kinetics, the half‐life (t 1/2) of model proteins also depends on the actual concentration of the RA in the reaction mixture [Eq. (12):(12) t1/2=1/k1(cRed,0-cSS,0)ln2-cSS,0/cRed,0

SMILES	Degree of the fold by FUV-ECD [1] [%]	difference in folded fraction between SS variant and parent [1] [%]	DTT: Conversion rate [2]	DTT: Elapsed time to steady state [2] [h]	DTT: t1/2 of reduction [2] [h]	DTT: k1 [2] [M⁻¹ s⁻¹]
CC[C@H](C)[C@@H]1NC(=O)[C@H](Cc2ccc(O)cc2)NC(=O)[C@H](CC(C)C)NC(=O)[C@H](CCCNC(=N)N)NC(=O)[C@H](C(C)C)NC(=O)[C@@H](N)CSSC[C@@H](C(=O)O)NC(=O)[C@@H]2CCCN2C(=O)[C@@H]2CCCN2C(=O)[C@@H]2CCCN2C(=O)[C@H](CCCNC(=N)N)NC(=O)CNC(=O)[C@H](CO)NC(=O)[C@H](CO)NC(=O)[C@@H]2CCCN2C(=O)CNC(=O)CNC(=O)[C@H](CC(=O)O)NC(=O)[C@H](CCCCN)NC(=O)[C@H](CC(C)C)NC(=O)[C@H](Cc2c[nH]c3ccccc23)NC(=O)[C@H](CCC(N)=O)NC1=O [E2_SS] (H-CVRLYIQWLKDGGPSSGRPPPC-OH; disulfide 1-22)	51.8	48	100%	5	1.03	0.0673
CC[C@H](C)[C@@H]1NC(=O)[C@H](Cc2ccc(O)cc2)NC(=O)[C@H](CC(C)C)NC(=O)[C@H](CCCNC(=N)N)NC(=O)[C@H](C(C)C)NC(=O)[C@@H](NC(=O)[C@H](CCC(=O)O)NC(=O)[C@H](CCC(=O)O)NC(=O)[C@H](CCC(=O)O)NC(=O)[C@H](CCSC)NC(=O)[C@H](CCC(N)=O)NC(=O)[C@H](CCCCN)NC(=O)[C@H](CO)NC(=O)[C@H](CC(C)C)NC(=O)[C@@H](N)CC(=O)O)CSSC[C@@H](C(=O)O)NC(=O)[C@@H]2CCCN2C(=O)[C@@H]2CCCN2C(=O)[C@@H]2CCCN2C(=O)[C@H](CCCNC(=N)N)NC(=O)CNC(=O)[C@H](CO)NC(=O)[C@H](CO)NC(=O)[C@@H]2CCCN2C(=O)CNC(=O)CNC(=O)[C@H](CC(=O)O)NC(=O)[C@H](CCCCN)NC(=O)[C@H](CC(C)C)NC(=O)[C@H](Cc2c[nH]c3ccccc23)NC(=O)[C@H](CCC(N)=O)NC1=O [E11_SS] (H-DLSKQMEEECVRLYIQWLKDGGPSSGRPPPC-OH; disulfide 10-31)	96.0	28	≈84%	138	27.65	0.00253
CC[C@H](C)[C@@H]1NC(=O)[C@H](Cc2ccc(O)cc2)NC(=O)[C@H](CC(C)C)NC(=O)[C@H](CCCNC(=N)N)NC(=O)[C@H](C(C)C)NC(=O)[C@@H](NC(=O)[C@H](CCC(=O)O)NC(=O)[C@H](CCC(=O)O)NC(=O)[C@@H](N)CCC(=O)O)CSSC[C@@H](C(=O)O)NC(=O)[C@@H]2CCCN2C(=O)[C@@H]2CCCN2C(=O)[C@@H]2CCCN2C(=O)[C@H](CCCNC(=N)N)NC(=O)CNC(=O)[C@H](CO)NC(=O)[C@H](CO)NC(=O)[C@@H]2CCCN2C(=O)CNC(=O)CNC(=O)[C@H](CC(=O)O)NC(=O)[C@H](CCCCN)NC(=O)[C@H](CC(C)C)NC(=O)[C@H](Cc2c[nH]c3ccccc23)NC(=O)[C@H](CCC(N)=O)NC1=O [E5_SS] (H-EEECVRLYIQWLKDGGPSSGRPPPC-OH; disulfide 4-25)	63.4	14	95%	9 to 10	1.92	0.0363
